Reference: patent US10633419B2, “Immunomodulators” (BRISTOL-MYERS SQUIBB COMPANY, priority 2014, dated 2020)
Starred links: 1 amine or outer side, 2 acyl side, 3 side chain; linkers in the order of their positions; H or OH if unused. Positions of bridges follow the written chain, without caps; N, C: chain ends. Non-standard residues stand in square brackets, D forms with d. Residues, ends and D or L forms follow the SMILES beside them. ξ: configuration not given here. *: point of attachment. Dap(Nα-HOOC(CH2)16CO)OH = O=C(O)CCCCCCCCCCCCCCCCC(=O)N[C@@H](CN*)C(=O)O; Trp(1-CH2COOH) = N[C@@H](Cc1cn(CC(=O)O)c2ccccc12)C(=O)O; X9 = O=C(O)CCCCCCCCCCCCCCCCC(=O)N[C@@H](CCN*)C(=O)O; Phe(3,4,5-F3) = N[C@@H](Cc1cc(F)c(F)c(F)c1)C(=O)O; d(cisHyp) = O=C(O)[C@H]1C[C@@H](O)CN1; βAsp = O=C(O)[C@H](CC(=O)[*:2])N[*:1]; NH(CH2)12COOH = O=C(O)CCCCCCCCCCCCN*; ξPro(4R-OH) = O=C(O)C1C[C@@H](O)CN1; PEG6 = NCCOCCOCCOCCOCCOCCOCCC(=O)O; X16 = O=C([C@H]1COCCN1[*:1])[*:2]; Hyp = O=C(O)[C@@H]1C[C@@H](O)CN1; NHhexadecyl = CCCCCCCCCCCCCCCCN*; NMeF = CN[C@@H](Cc1ccccc1)C(=O)O; NMeE = CN[C@@H](CCC(=O)O)C(=O)O; NMeNle = CCCC[C@H](NC)C(=O)O; X20 = O=C(O)CCCCCCCCCCCCCN*; Pip = O=C(O)[C@@H]1CCCCN1; NMeA = CN[C@@H](C)C(=O)O; Pra = C#CC[C@H](N)C(=O)O; Dab = NCC[C@H](N)C(=O)O; Dap = NC[C@H](N)C(=O)O

Biological target: T1, PD-L1 (Homo sapiens, UniProt Q9NZQ7)
T1 construct: hPDL1(19-239)-TVMV-His; made in house; host or cells: HEK293T
Assay: PD-1/PD-L1 Homogenous Time-Resolved Fluorescence (HTRF) binding assay (PD-1-Ig/PD-L1-His)
Conditions: inhibition of PD-1-Ig binding to PD-L1-TVMV-His; value given as range class; read-out: HTRF IC50
Procedure, shortened: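 HTRF competition in dPBS with 0.1% BSA and 0.05% Tween-20: 20 nM PD-1-Ig added after 15 min compound pre-incubation with 10 nM PD-L1-His, then another 15 min. Signal (665/620 nm) after 30 min with APC anti-His (20 nM) and Eu anti-Ig (1 nM).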

T1 sequence (Q9NZQ7 with tags, fused parts or gaps): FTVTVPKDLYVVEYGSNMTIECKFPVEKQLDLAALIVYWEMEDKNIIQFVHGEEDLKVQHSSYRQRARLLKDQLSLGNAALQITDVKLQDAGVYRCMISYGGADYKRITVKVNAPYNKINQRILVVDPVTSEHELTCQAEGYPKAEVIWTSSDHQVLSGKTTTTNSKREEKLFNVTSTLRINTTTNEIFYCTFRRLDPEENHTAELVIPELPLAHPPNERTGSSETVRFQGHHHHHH

IC50 [µM]	Compound
0.1 to 1.6	CCCC[C@H]1C(=O)N(C)[C@@H](CCCC)C(=O)N[C@@H](CC(C)C)C(=O)N[C@H](C(=O)NCC(=O)N[C@@H](CCC(=O)O)C(=O)NCCOCCOCCOCCOCCOCCOCCC(=O)NC[C@H](NC(=O)CCCCCCCCCCCCCCCCC(=O)O)C(=O)O)CSCC(=O)N[C@@H](Cc2ccc(O)cc2)C(=O)N(C)[C@@H](C)C(=O)N[C@@H](CC(N)=O)C(=O)N2CCC[C@H]2C(=O)N[C@@H](CN)C(=O)N[C@@H](CC(C)C)C(=O)N2C[C@H](O)CC2C(=O)N[C@@H](Cc2c[nH]c3ccccc23)C(=O)N[C@@H](CCN)C(=O)N[C@@H](Cc2cn(CC(=O)O)c3ccccc23)C(=O)N1C (stereo partly drawn) [Example 11182] ({CH2CO}-Y[NMeA]NP[Dap]L[ξPro(4R-OH)]W[Dab][Trp(1-CH2COOH)][NMeNle][NMeNle]LCGE[PEG6]-{Dap(Nα-HOOC(CH2)16CO)OH}; thioether N-14)
0.0003 to 0.0099	CCCC[C@H]1C(=O)N2C[C@H](O)C[C@@H]2C(=O)N[C@@H](CC(=O)O)C(=O)N[C@@H](C(C)C)C(=O)N(C)[C@@H](Cc2ccccc2)C(=O)N[C@@H](Cc2ccc(O)cc2)C(=O)N(C)[C@@H](CCC(=O)O)C(=O)N[C@@H](Cc2c[nH]c3ccccc23)C(=O)N[C@@H](Cc2ccc(O)cc2)C(=O)N[C@@H](CC(C)C)C(=O)N[C@H](C(=O)NCC(=O)NCC(=O)NCC(=O)N[C@@H](CCCCN)C(N)=O)CSCC(=O)N[C@@H](Cc2cc(F)c(F)c(F)c2)C(=O)N(C)[C@@H](Cc2ccccc2)C(=O)N1C [Example 3214] ({CH2CO}-[Phe(3,4,5-F3)][NMeF][NMeNle][d(cisHyp)]DV[NMeF]Y[NMeE]WYLCGGGK-NH2; thioether N-13)
0.01 to 0.099	CCCC[C@H]1C(=O)N(C)[C@@H](CCCC)C(=O)N[C@@H](CC(C)C)C(=O)N[C@H](C(=O)NCC(=O)N[C@@H](CC(=O)O)C(=O)NCC(=O)NCCCCCCCCCCCCC(=O)O)CSCC(=O)N[C@@H](Cc2ccc(O)cc2)C(=O)N(C)[C@@H](C)C(=O)N[C@@H](CC(N)=O)C(=O)N2CCC[C@H]2C(=O)N[C@@H](CN)C(=O)N[C@@H](CC(C)C)C(=O)N2C[C@H](O)C[C@H]2C(=O)N[C@@H](Cc2c[nH]c3ccccc23)C(=O)N[C@@H](CCN)C(=O)N[C@@H](Cc2cn(CC(=O)O)c3ccccc23)C(=O)N1C [Example 11223] ({CH2CO}-Y[NMeA]NP[Dap]L[Hyp]W[Dab][Trp(1-CH2COOH)][NMeNle][NMeNle]LCGDG-{NH(CH2)12COOH}; thioether N-14)
0.0003 to 0.0099	C#CC[C@H](NC(=O)CNC(=O)[C@@H]1CSCC(=O)N[C@@H](Cc2ccc(O)cc2)C(=O)N2CCCC[C@H]2C(=O)N[C@@H](CC(N)=O)C(=O)N2CCC[C@H]2C(=O)N[C@@H](CN)C(=O)N[C@@H](CC(C)C)C(=O)N2C[C@H](O)C[C@H]2C(=O)N[C@@H](Cc2c[nH]c3ccccc23)C(=O)N[C@@H](CCN)C(=O)N[C@@H](Cc2cn(CC(=O)O)c3ccccc23)C(=O)N(C)[C@@H](CCCC)C(=O)N(C)[C@@H](CCCC)C(=O)N[C@@H](CC(C)C)C(=O)N1)C(=O)O [INT130AI] ({CH2CO}-Y[Pip]NP[Dap]L[Hyp]W[Dab][Trp(1-CH2COOH)][NMeNle][NMeNle]LCG[Pra]-OH; thioether N-14)
0.1 to 1.6	CCCCCCCCCCCCCCCCNC(=O)CNC(=O)CNC(=O)CNC(=O)CNC(=O)[C@@H]1CSCC(=O)N[C@@H](Cc2ccc(O)cc2)C(=O)N(C)[C@@H](C)C(=O)N[C@@H](CC(N)=O)C(=O)N2CCC[C@H]2C(=O)N[C@@H](CN)C(=O)N[C@@H](CC(C)C)C(=O)N2C[C@H](O)C[C@H]2C(=O)N[C@@H](Cc2c[nH]c3ccccc23)C(=O)N[C@@H](CO)C(=O)N[C@@H](Cc2c[nH]c3ccccc23)C(=O)N(C)[C@@H](CCCC)C(=O)N(C)[C@@H](CCCC)C(=O)N[C@@H](CCCNC(=N)N)C(=O)N1 [Example 11108] ({CH2CO}-Y[NMeA]NP[Dap]L[Hyp]WSW[NMeNle][NMeNle]RCGGGG-NHhexadecyl; thioether N-14)
0.0003 to 0.0099	CCCC[C@H]1C(=O)N(C)[C@@H](CCCC)C(=O)N[C@@H](CC(C)C)C(=O)N[C@H](C(=O)NCC(=O)N[C@@H](CC(=O)N2CCOC[C@@H]2C(=O)NCC[C@H](NC(=O)CCCCCCCCCCCCCCCCC(=O)O)C(=O)O)C(=O)O)CSCC(=O)N[C@@H](Cc2ccc(O)cc2)C(=O)N2CCCC[C@H]2C(=O)N[C@@H](CC(N)=O)C(=O)N2CCC[C@H]2C(=O)N[C@@H](CN)C(=O)N[C@@H](CC(C)C)C(=O)N2C[C@H](O)C[C@H]2C(=O)N[C@@H](Cc2c[nH]c3ccccc23)C(=O)N[C@@H](CCN)C(=O)N[C@@H](Cc2cn(CC(=O)O)c3ccccc23)C(=O)N1C [Example 13158] ({CH2CO}-Y[Pip]NP[Dap]L[Hyp]W[Dab][Trp(1-CH2COOH)][NMeNle][NMeNle]LCG[βAsp][X16]-X9; thioether N-14)
0.01 to 0.099	CCCC[C@H]1C(=O)N(C)[C@@H](CCCC)C(=O)N[C@@H](CC(C)C)C(=O)N[C@H](C(=O)NCC(=O)NCC(=O)N[C@@H](CC(=O)O)C(=O)NCCCCCCCCCCCCCC(=O)O)CSCC(=O)N[C@@H](Cc2ccc(O)cc2)C(=O)N(C)[C@@H](C)C(=O)N[C@@H](CC(N)=O)C(=O)N2CCC[C@H]2C(=O)N[C@@H](CN)C(=O)N[C@@H](CC(C)C)C(=O)N2C[C@H](O)C[C@@H]2C(=O)N[C@@H](Cc2c[nH]c3ccccc23)C(=O)N[C@@H](CCN)C(=O)N[C@@H](Cc2cn(CC(=O)O)c3ccccc23)C(=O)N1C [Example 11201] ({CH2CO}-Y[NMeA]NP[Dap]L[d(cisHyp)]W[Dab][Trp(1-CH2COOH)][NMeNle][NMeNle]LCGGD-X20; thioether N-14)
